For one compound, IC50 results are on record in article PMC7957516, “Biochemical Properties of Tyrosinase from Aspergillus terreus and Penicillium copticola; Undecanoic Acid from Aspergillus flavus, an Endophyte of Moringa oleifera, Is a Novel Potent Tyrosinase Inhibitor” (Molecules, 2021).

SMILES strings stand for the structures. Converted amounts (≈) assume the structure as drawn.

The target of test [1] is T1, tyrosinase from P. copticola.
T1 construct: gene TYR
Conditions: 50 mM L-tyrosine, Tris-HCl pH 7.0, 37 °C; 2 h preincubation with inhibitor at 30 °C; P. copticola not named in the value sentence, inferred as the second of the two enzymes.

In test [2] the target is T2, tyrosinase from A. terreus.
T2 construct: gene TYR
Conditions: 50 mM L-tyrosine, Tris-HCl pH 7.0, 37 °C; 2 h preincubation with inhibitor at 30 °C.

As to `O=c1cc(CO)occ1O` [kojic acid], the figures for the IC50 in test [1] and in test [2] were 15.1 µg/mL (≈ 106 µM) and 21.5 µg/mL (≈ 151 µM), respectively.
